Laboratory results from patent US20150290612A1 (priority 2012, published 2015).

Molecular target: Acetylcholinesterase (AChE) (Electrophorus electricus, UniProt O42275)
Assay type: biochemical

Chain of Acetylcholinesterase (AChE) (O42275 24-633): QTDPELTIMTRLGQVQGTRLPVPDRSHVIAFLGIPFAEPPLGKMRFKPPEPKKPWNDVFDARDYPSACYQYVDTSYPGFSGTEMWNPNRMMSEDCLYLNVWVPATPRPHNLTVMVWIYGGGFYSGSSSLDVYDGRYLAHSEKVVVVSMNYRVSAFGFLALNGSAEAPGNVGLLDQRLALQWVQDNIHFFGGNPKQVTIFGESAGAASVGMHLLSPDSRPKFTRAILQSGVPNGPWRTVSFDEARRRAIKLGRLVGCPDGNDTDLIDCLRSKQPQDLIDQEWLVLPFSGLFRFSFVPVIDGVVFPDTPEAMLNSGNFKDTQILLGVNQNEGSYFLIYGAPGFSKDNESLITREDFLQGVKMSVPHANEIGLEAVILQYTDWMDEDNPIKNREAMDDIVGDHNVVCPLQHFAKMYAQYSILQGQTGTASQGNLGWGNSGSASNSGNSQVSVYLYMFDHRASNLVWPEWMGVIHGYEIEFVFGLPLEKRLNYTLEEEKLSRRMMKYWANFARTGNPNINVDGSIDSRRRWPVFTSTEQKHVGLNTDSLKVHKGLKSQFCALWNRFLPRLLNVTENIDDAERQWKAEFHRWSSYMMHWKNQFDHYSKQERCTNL

SMILES | Interference with analysis of organophosphates
CCNc1nc(Cl)nc(NC(C)C)n1 [atrazine] | no interference
CCNc1nc(Cl)nc(NCC)n1 [simazine] | no interference
